Source: US20230331601A1, “METHOD FOR WATER PURIFICATION AND SANITIZATION” (YISSUM RESEARCH DEVELOPMENT COMPANY OF THE HEBREW …, priority 2020, published 2023)
Blank lines part the entries; values can stand above or below the compound they belong to.

Legend:
Type in all cases: physicochemical
[1] = Decolorization of Rhodamine B solution monitored with UV-Vis spectroscopy; conditions: 125 ppm RhB solution (Example 2 conditions)
Text: UV-Vis spectroscopy: 1800 UV spectrophotometer, Shimadzu, Japan.
Rhodamine B (RhB) is a water-soluble chemical dye which is commonly used as a benchmark to assess the potency of oxidants to decompose organic pollutants in aqueous solution and measure the rate of degradation. De-colorization of RhB solution, that is, the disappearance of the characteristic intense pink color, is readily visible as the decomposition of the dye advances under the action of the tested oxidant and the oxidation reaction can be monitored with UV-Vis spectroscopy. […] Decolorization of 1000 ppm and 125 ppm RhB solutions was completed within eleven minutes and two minutes, respectively, i.e., well before the end of the experiments.

[2] = Degradation of carbamazepine by sodium hydroxide and hydrogen peroxide with phase transfer catalyst and added oxygen (LC-MS)
Method: A 50 ml round bottom flask equipped with a magnetic stirrer was charged with 10 ml of water polluted with 1-100 ppm of carbamazepine (concentrations of 1, 10 and 100 ppm were examined). Sodium hydroxide (0.5 g) was rapidly added followed by addition of 0.02 ml of a phase transfer catalyst (Aliquat 336) Next, 1 ml of aqueous hydrogen peroxide (30% solution) was introduced over 5 minutes. After the addition of hydrogen peroxide, the mixture was held under stirring and pure oxygen was bubbled to the system at a flow rate of 0.5 ml/min over 10 minutes. For each experiment, at the end of the process the final reaction mixture was extracted with 5 ml of Acetone: hexane solution (1:1) and carbamazepine remnant concentration was measured by LC-MS, QTOF 6520, manufactured by Agilent.

[3] = Degradation of xylene by sodium hydroxide and hydrogen peroxide with Aliquat 336, with and without added oxygen (GC-FID)
Method: Experiment A: In the reference experiment, a 50 ml round bottom flask equipped with a magnetic stirrer was charged with 10 ml of water polluted with 100 ppm of xylene. Sodium hydroxide (0.5 g) was rapidly added followed by addition of 0.02 ml of a phase transfer catalyst (Aliquat 336) Next, 1 ml of aqueous hydrogen peroxide (30% solution) was introduced over 5 minutes. After the addition of hydrogen peroxide solution has been completed, the mixture was held under stirring for ten minutes.
Experiment B: To assess the effect of added oxygen, the procedure set forth above was repeated but after the addition of hydrogen peroxide, pure oxygen was bubbled to the system at a flow rate of 1 ml/min over 30 minutes. Upon completion of O2 addition, the mixture was stirred for ten minutes.
For each experiment, samples (0.5 ml) were taken from the reaction mixture at intervals of one minute during the ten minutes hold time and the concentration of remnant xylene was measured by GC-FID. The final reaction mixture was extracted with dichloromethane (10 ml) and analyzed by GC-FID as previously described.

Time to complete decolorization [1]: two
Compound: CCN(CC)c1ccc2c(-c3ccccc3C(=O)O)c3ccc(=[N+](CC)CC)cc-3oc2c1.[Cl-] [Rhodamine B]

conversion rate ([2]; 1 ppm carbamazepine in water): ~ 70% | conversion ([2]; 10 ppm carbamazepine in water): > 90% | conversion ([2]; 100 ppm carbamazepine in water): > 90% | removal rates ([2]; low pollution level of 1 to 10 ppm): 70 to 90%
Compound: NC(=O)N1c2ccccc2C=Cc2ccccc21 [carbamazepine]

Compound: Xylene
Hold time to reach complete oxidation of the pollutant ([3]; Experiment A: 100 ppm xylene, absence of added oxygen): ten | Hold time to reach complete oxidation of the pollutant ([3]; Experiment B: 100 ppm xylene, with added oxygen 1 ml/min over 30 minutes): about six
